Test results published in patent US10954252B1, “Inhibitors of human immunodeficiency virus replication” (ViiV HEALTHCARE UK (NO.5) LIMITED, priority 2017, dated 2021).
Counter-ions that a name gives are not always drawn.

What was measured:
[1] = Compound cytotoxicity, XTT-based colorimetric assay; type: cell-based; details: human, uninfected MT2 cells
Method in brief: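 CC50 from uninfected MT2 cells run under the antiviral-assay protocol without virus. Viability read on day 4 by XTT colorimetric assay.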

[2] = system: recombinant NL4-3 virus (nef section replaced with Renilla luciferase gene) in MT-2 cells; experiment: HIV cell culture assay (antiviral activity, luciferase readout); type: cell-based; details: MT-2 cells infected for 4-5 days with recombinant NL4-3 luciferase virus
Method in brief: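 NL4-3 reporter virus carrying Renilla luciferase in place of part of nef, produced in 293T cells, was used to infect MT-2 cells for 4-5 days with serial compound dilutions. Luciferase activity was read with a live-cell substrate; EC50 derived from the median effect equation.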

Row | SMILES | CC50 at 4 days ([1]; Table 1a, day 4, XTT) [nM] | EC50 ([2]; Renilla, NL43, Table 1a) [nM] | further results
1 | Cn1nc(NS(C)(=O)=O)c2c(Cl)ccc(-n3c([C@H](Cc4cc(F)cc(F)c4)NC(=O)Cn4nc(C(F)F)c5c4C(F)(F)[C@@H]4C[C@H]54)nc4c(F)cc(F)cc4c3=O)c21 (single isomer, unassigned) [Example 74] | > 1000 | 0.0513 | 
2 | COc1ccc2c(=O)n(-c3ccc(Cl)c4c(NS(C)(=O)=O)nn(CC(F)F)c34)c([C@H](Cc3cc(F)cc(F)c3)NC(=O)Cn3ccc(C4CC4)n3)nc2n1 (atropisomer, axis not shown) [Example 55.1, N-[(1S)-1-{3-[4-chloro-1-(2,2-difluoroethyl)-3-methanesulfonamido-1H-indazol-7-yl]-7-methoxy-4-oxo-3H,4H-pyrido[2,3-d]pyrimidin-2-yl}-2-(3,5-difluorophenyl)ethyl]-2-(3-cyclopropyl-1H-pyrazol-1-yl)acetamide] | > 1000 |  | EC50 ([2]; Table 1a): 28.5 nM
3 | COc1ccc2c(=O)n(-c3ccc(Cl)c4c(NS(C)(=O)=O)nn(CC(F)F)c34)c([C@H](Cc3cc(F)cc(F)c3)NC(=O)Cn3nc(C(F)F)c4c3C(F)(F)[C@@H]3C[C@H]43)nc2c1 (single isomer, unassigned) [Example 191] | > 1000 | 0.06 | 
4 | COc1ccc2c(=O)n(-c3ccc(Cl)c4c(NS(=O)(=O)C5CC5)nn(CC(F)F)c34)c([C@H](Cc3cc(F)cc(F)c3)NC(=O)Cn3ccc(C4CC4)n3)nc2n1 (single isomer, unassigned) [Example 57.2] | > 1000 | 0.33 | 
5 | CC(C)(c1ccc2c(=O)n(-c3ccc(Cl)c4c(NS(=O)(=O)C5CC5)nn(CC(F)F)c34)c([C@H](Cc3cc(F)cc(F)c3)NC(=O)Cn3nc(C(F)F)c4c3C(F)(F)[C@@H]3C[C@H]43)nc2c1)S(C)(=O)=O [Example 214, N—((S)-1-(3-(4-chloro-3-(cyclopropanesulfonamido)-1-(2,2-difluoroethyl)-1H-indazol-7-yl)-7-(2-(methylsulfonyl)propan-2-yl)-4-oxo-3,4-dihydroquinazolin-2-yl)-2-(3,5-difluorophenyl)ethyl)-2-((3bS,4aR)-3-(difluoromethyl)-5,5-difluoro-3b,4,4a,5-tetrahydro-1H-cyclopropa[3,4]cyclopenta[1,2-c]pyrazol-1-yl)acetamide, TFA] | > 1000 | 0.071 | 
6 | Cc1nc2nc(C(Cc3cc(F)cc(F)c3)NC(=O)Cn3nc(C(F)F)c4c3CCC4)c(-c3ccc(Cl)c4c(NS(C)(=O)=O)nn(C)c34)cc2s1 (single isomer, unassigned) [Example 2.3, N-(1-(6-(4-chloro-1-methyl-3-(methylsulfonamido)-1H-indazol-7-yl)-2-methylthiazolo[4,5-b]pyridin-5-yl)-2-(3,5-difluorophenyl)ethyl)-2-(3-(difluoromethyl)-5,6-dihydrocyclopenta[c]pyrazol-1(4H)-yl)acetamide] |  |  | CC50 at 4 days ([1]; Table 1, day 4, XTT): > 10000 nM; EC50 ([2]; Table 1): 0.1 nM
7 | COc1ccc2c(=O)n(-c3ccc(Cl)c4c(NS(C)(=O)=O)nn(CC(F)F)c34)c([C@H](Cc3cc(F)cc(F)c3)NC(=O)Cn3nc(C(F)F)c4c3C(F)(F)[C@@H]3C[C@H]43)nc2n1 (mixture of isomers) [Example 54.2, N-[(1S)-1-{3-[4-chloro-1-(2,2-difluoroethyl)-3-methanesulfonamido-1H-indazol-7-yl]-7-methoxy-4-oxo-3H,4H-pyrido[2,3-d]pyrimidin-2-yl}-2-(3,5-difluorophenyl)ethyl]-2-[(2S,4R)-9-(difluoromethyl)-5,5-difluoro-7,8-diazatricyclo[4.3.0.0^2,4]nona-1(6),8-dien-7-yl]acetamide] | > 1000 | 0.026 | 
8 | O=C(Cn1nc(C(F)F)c2c1C(F)(F)[C@@H]1C[C@H]21)N[C@@H](Cc1cc(F)cc(F)c1)c1nc2ccccc2c(=O)n1-c1ccc(S(=O)(=O)N2CCOCC2)cc1 [Example 165, 2-((3bS,4aR)-3-(difluoromethyl)-5,5-difluoro-3b,4,4a,5-tetrahydro-1H-cyclopropa[3,4]cyclopenta[1,2-c]pyrazol-1-yl)-N—((S)-2-(3,5-difluorophenyl)-1-(3-(4-(morpholinosulfonyl)phenyl)-4-oxo-3,4-dihydroquinazolin-2-yl)ethyl)acetamide] | > 10000 | 0.23 | 
9 | Cn1nc(NS(C)(=O)=O)c2c(Cl)ccc(-n3c([C@H](Cc4cc(F)cc(F)c4)NC(=O)Cn4nc(C(F)F)c5c4C(F)(F)[C@@H]4C[C@H]54)nc4ccccc4c3=O)c21 (single isomer, unassigned) [Example 16] |  |  | CC50 at 4 days ([1]; Table 1, day 4, XTT): > 10000 nM; EC50 ([2]; Renilla, NL43, Table 1): 49 nM
10 | CC(C)c1ccc(-n2c([C@H](Cc3cc(F)cc(F)c3)NC(=O)Cc3c[nH]c4ccc(O)cc34)nc3ccccc3c2=O)cn1 [Example 10.33] |  |  | CC50 at 4 days ([1]; Table 1, day 4, XTT): > 10000 nM; EC50 ([2]; Renilla, NL43, Table 1): 49 nM
11 | Cn1nc(NS(C)(=O)=O)c2c(Cl)ccc(-n3c([C@H](Cc4cc(F)cc(F)c4)NC(=O)Cn4nc(C(F)F)c5c4C(F)(F)[C@@H]4C[C@H]54)nc4ccc(F)c(Cl)c4c3=O)c21 (mixture of isomers) [Example 159, N—((S)-1-(5-chloro-3-(4-chloro-1-methyl-3-(methylsulfonamido)-1H-indazol-7-yl)-6-fluoro-4-oxo-3,4-dihydroquinazolin-2-yl)-2-(3,5-difluorophenyl)ethyl)-2-((3bS,4aR)-3-(difluoromethyl)-5,5-difluoro-3b,4,4a,5-tetrahydro-1H-cyclopropa[3,4]cyclopenta[1,2-c]pyrazol-1-yl)acetamide] | > 1000 | 9.49 | 
12 | Cn1nc(NS(C)(=O)=O)c2c(Cl)ccc(-n3c([C@H](Cc4cc(F)cc(F)c4)NC(=O)Cn4ccc(C5CC5)n4)nc4cccc(F)c4c3=O)c21 (single isomer, unassigned) [Example 183] | > 1000 |  | EC50 ([2]; Table 1a): 21.5 nM
13 | NS(=O)(=O)c1ccc(-c2cc3[nH]ncc3nc2[C@H](Cc2cc(F)cc(F)c2)NC(=O)Cn2nc(C(F)F)c3c2C(F)(F)[C@@H]2C[C@H]32)cc1 [Example 24, 2-((3bS,4aR)-3-(difluoromethyl)-5,5-difluoro-3b,4,4a,5-tetrahydro-1H-cyclopropa[3,4]cyclopenta[1,2-c]pyrazol-1-yl)-N—((S)-2-(3,5-difluorophenyl)-1-(6-(4-sulfamoylphenyl)-1H-pyrazolo[4,3-b]pyridin-5-yl)ethyl)acetamide] | > 10000 | 1370 | 
14 | CC(C)n1nc(NS(C)(=O)=O)c2c(Cl)ccc(-n3c([C@H](Cc4cc(F)cc(F)c4)NC(=O)Cn4nc(C(F)F)c5c4C(F)(F)[C@@H]4C[C@H]54)nc4ncccc4c3=O)c21 (mixture of isomers) [Example 43.2, N-[(1S)-1-{3-[4-chloro-3-methanesulfonamido-1-(propan-2-yl)-1H-indazol-7-yl]-4-oxo-3H,4H-pyrido[2,3-d]pyrimidin-2-yl}-2-(3,5-difluorophenyl)ethyl]-2-[(2S,4R)-9-(difluoromethyl)-5,5-difluoro-7,8-diazatricyclo[4.3.0.0^2,4]nona-1(6),8-dien-7-yl]acetamide] | > 10000 | 0.132 | 
15 | CC(C)S(=O)(=O)NC(=O)c1cc(-c2cc3[nH]ncc3nc2[C@H](Cc2cc(F)cc(F)c2)NC(=O)Cn2nc(C(F)F)c3c2C(F)(F)[C@@H]2C[C@H]32)ccc1Cl [Example 10.19, 2-chloro-5-(5-((S)-1-(2-((3bS,4aR)-3-(difluoromethyl)-5,5-difluoro-3b,4,4a,5-tetrahydro-1H-cyclopropa[3,4]cyclopenta[1,2-c]pyrazol-1-yl)acetamido)-2-(3,5-difluorophenyl)ethyl)-1H-pyrazolo[4,3-b]pyridin-6-yl)-N-(isopropylsulfonyl)benzamide] |  |  | CC50 at 4 days ([1]; Table 1, day 4, XTT): > 10000 nM; EC50 ([2]; Renilla, NL43, Table 1): 220 nM
16 | O=C(Cn1nc(C(F)F)c2c1C(F)(F)[C@@H]1C[C@H]21)N[C@@H](Cc1cc(F)cc(F)c1)c1nc2cn[nH]c2cc1-c1ccc(S(=O)(=O)N2CCOCC2)cc1 [Example 25, 2-((3bS,4aR)-3-(difluoromethyl)-5,5-difluoro-3b,4,4a,5-tetrahydro-1H-cyclopropa[3,4]cyclopenta[1,2-c]pyrazol-1-yl)-N—((S)-2-(3,5-difluorophenyl)-1-(6-(4-(morpholinosulfonyl)phenyl)-1H-pyrazolo[4,3-b]pyridin-5-yl)ethyl)acetamide] | 7940 | 5.78 | 
17 | O=C(Cc1c[nH]c2ccc(O)cc12)N[C@@H](Cc1cc(F)cc(F)c1)c1nc2ncccc2c(=O)n1-c1ccc2scnc2c1 [Example 10.23] |  |  | CC50 at 4 days ([1]; Table 1, day 4, XTT): > 10000 nM; EC50 ([2]; Renilla, NL43, Table 1): 2.7 nM
18 | CC(C)(C)c1ccc2c(=O)n(-c3ccc(Cl)c4c(NS(C)(=O)=O)nn(CC(F)F)c34)c([C@H](Cc3cc(F)cc(F)c3)NC(=O)Cn3nc(C(F)F)c4c3C(F)(F)[C@@H]3C[C@H]43)nc2c1 [Example 217, N—((S)-1-(7-(tert-Butyl)-3-(4-chloro-1-(2,2-difluoroethyl)-3-(methylsulfonamido)-1H-indazol-7-yl)-4-oxo-3,4-dihydroquinazolin-2-yl)-2-(3,5-difluorophenyl)ethyl)-2-((3bS,4aR)-3-(difluoromethyl)-5,5-difluoro-3b,4,4a,5-tetrahydro-1H-cyclopropa[3,4]cyclopenta[1,2c]pyrazol-1-yl)acetamide] | > 1000 | 0.25 | 
